# Patent publication US10632106B2, “Methods of cancer treatment with 2-(1′H-Indole-3′-carbonyl)-thiazole-4-carboxylic acid methyl ester” (Ariagen, Inc., priority 2009, dated 2020)
# Assay: Effects of oral water administration on ITE dosed mice
# Assay type: in vivo
# Set-up: key to feces appearance: Moderate; Dry
# Conditions: for feces appearance (visual): after one week of dosing
# Method: Oral injection of water was initiated at the same day i.p. administration of ITE was started. Daily oral gavage at 10 or 20 ml/kg was performed immediately following daily i.p. injection of ITE or DMSO continuously for the entire duration of the study. Both oral and i.p. injection were accidentally skipped at day 14 due to a mistake of the experimenter(s) and all of the other dosing were executed normally. Bodyweights (individual), food consumed (in group), feces weights (in group), and feces appearance (in group) were recorded every two days. Death of animal(s) and approximate cause of death etc. were also recorded.
# [1] = ITE-H 300 mg/kg i.p. + Water-0, day 4
# [2] = ITE-H 300 mg/kg i.p. + Water-0, day 6
# [3] = ITE-H 300 mg/kg i.p. + Water-0, day 8
# [4] = ITE-H 300 mg/kg i.p. + Water-0, day 10
# [5] = ITE-H 300 mg/kg i.p. + Water-0, day 12
# [6] = ITE-H 300 mg/kg i.p. + Water-0, day 14
# [7] = ITE-H 300 mg/kg i.p. + Water-0, day 18 (line r16)
# [8] = ITE-H 300 mg/kg i.p. + Water-0, day 18 (line r17)
# [9] = ITE-H 300 mg/kg i.p. + Water-0, day 20
# [10] = ITE-H 300 mg/kg i.p. + Water-0, day 22
# [11] = ITE-H 300 mg/kg i.p. + Water-0, day 24
# [12] = ITE-H 300 mg/kg i.p. + Water-0, day 26
# [13] = ITE-H 300 mg/kg i.p. + Water-0, day 28
# [14] = ITE-H 300 mg/kg i.p. + Water-0, day 30
# [15] = ITE-H 300 mg/kg i.p. + Water-0, day 32
# [16] = ITE-H 300 mg/kg i.p. + Water-0, day 34
# [17] = ITE-H 300 mg/kg i.p. + Water-0, day 36
# [18] = ITE-H 300 mg/kg i.p. + Water-H 20 ml/kg, day 4
# [19] = ITE-H 300 mg/kg i.p. + Water-H 20 ml/kg, day 6
# [20] = ITE-H 300 mg/kg i.p. + Water-H 20 ml/kg, day 8
# [21] = ITE-H 300 mg/kg i.p. + Water-H 20 ml/kg, day 10
# [22] = ITE-H 300 mg/kg i.p. + Water-H 20 ml/kg, day 12
# [23] = ITE-H 300 mg/kg i.p. + Water-H 20 ml/kg, day 14
# [24] = ITE-H 300 mg/kg i.p. + Water-H 20 ml/kg, day 18 (line r16)
# [25] = ITE-H 300 mg/kg i.p. + Water-H 20 ml/kg, day 18 (line r17)
# [26] = ITE-H 300 mg/kg i.p. + Water-H 20 ml/kg, day 20
# [27] = ITE-H 300 mg/kg i.p. + Water-H 20 ml/kg, day 22
# [28] = ITE-H 300 mg/kg i.p. + Water-H 20 ml/kg, day 24
# [29] = ITE-H 300 mg/kg i.p. + Water-H 20 ml/kg, day 26
# [30] = ITE-H 300 mg/kg i.p. + Water-H 20 ml/kg, day 28
# [31] = ITE-H 300 mg/kg i.p. + Water-H 20 ml/kg, day 30
# [32] = ITE-H 300 mg/kg i.p. + Water-H 20 ml/kg, day 32
# [33] = ITE-H 300 mg/kg i.p. + Water-H 20 ml/kg, day 34
# [34] = ITE-H 300 mg/kg i.p. + Water-L 10 ml/kg, day 4
# [35] = ITE-H 300 mg/kg i.p. + Water-L 10 ml/kg, day 6
# [36] = ITE-H 300 mg/kg i.p. + Water-L 10 ml/kg, day 8
# [37] = ITE-H 300 mg/kg i.p. + Water-L 10 ml/kg, day 10
# [38] = ITE-H 300 mg/kg i.p. + Water-L 10 ml/kg, day 12
# [39] = ITE-H 300 mg/kg i.p. + Water-L 10 ml/kg, day 14
# [40] = ITE-H 300 mg/kg i.p. + Water-L 10 ml/kg, day 18 (line r16)
# [41] = ITE-H 300 mg/kg i.p. + Water-L 10 ml/kg, day 18 (line r17)
# [42] = ITE-H 300 mg/kg i.p. + Water-L 10 ml/kg, day 20
# [43] = ITE-H 300 mg/kg i.p. + Water-L 10 ml/kg, day 22
# [44] = ITE-H 300 mg/kg i.p. + Water-L 10 ml/kg, day 24
# [45] = ITE-H 300 mg/kg i.p. + Water-L 10 ml/kg, day 26
# [46] = ITE-H 300 mg/kg i.p. + Water-L 10 ml/kg, day 28
# [47] = ITE-H 300 mg/kg i.p. + Water-L 10 ml/kg, day 30
# [48] = ITE-H 300 mg/kg i.p. + Water-L 10 ml/kg, day 32
# [49] = ITE-H 300 mg/kg i.p. + Water-L 10 ml/kg, day 34
smiles,measurement,setting,value
"COC(=O)c1csc(C(=O)c2c[nH]c3ccccc23)n1 [ITE, 2-(1′H-indole-3′-carbonyl)-thiazole-4-carboxylic acid methyl ester]",feces appearance (visual),ITE high (300 mg/kg),dry
same,day at which one mouse died,ITE high dose (300 mg/kg) without oral water administration,36 days
same,feces appearance (visual),ITE low (200 mg/kg),dry
same,day at which one mouse died,ITE low dose (200 mg/kg) without oral water administration,28 days
same,feces appearance,[1],M
same,number of mice that died,[1],0
same,feces appearance,[2],M
same,number of mice that died,[2],0
same,feces appearance,[3],D
same,number of mice that died,[3],0
same,feces appearance,[4],D
same,number of mice that died,[4],0
same,feces appearance,[5],D
same,number of mice that died,[5],0
same,feces appearance,[6],D
same,number of mice that died,[6],0
same,feces appearance,[7],D
same,number of mice that died,[7],0
same,feces appearance,[8],D
same,number of mice that died,[8],0
same,feces appearance,[9],D
same,number of mice that died,[9],0
same,feces appearance,[10],D
same,number of mice that died,[10],0
same,feces appearance,[11],D
same,number of mice that died,[11],0
same,feces appearance,[12],D
same,number of mice that died,[12],0
same,feces appearance,[13],D
same,number of mice that died,[13],0
same,feces appearance,[14],D
same,number of mice that died,[14],0
same,feces appearance,[15],D
same,number of mice that died,[15],0
same,feces appearance,[16],D
same,number of mice that died,[16],0
same,feces appearance,[17],D
same,number of mice that died,[17],1
same,feces appearance,[18],M
same,number of mice that died,[18],0
same,feces appearance,[19],M
same,number of mice that died,[19],0
same,feces appearance,[20],D
same,number of mice that died,[20],0
same,feces appearance,[21],D
same,number of mice that died,[21],0
same,feces appearance,[22],D
same,number of mice that died,[22],0
same,feces appearance,[23],D
same,number of mice that died,[23],0
same,feces appearance,[24],D
same,number of mice that died,[24],0
same,feces appearance,[25],D
same,number of mice that died,[25],0
same,feces appearance,[26],D
same,number of mice that died,[26],0
same,feces appearance,[27],D
same,number of mice that died,[27],0
same,feces appearance,[28],D
same,number of mice that died,[28],0
same,feces appearance,[29],D
same,number of mice that died,[29],0
same,feces appearance,[30],M
same,number of mice that died,[30],0
same,feces appearance,[31],M
same,number of mice that died,[31],0
same,feces appearance,[32],M
same,number of mice that died,[32],0
same,feces appearance,[33],M
same,number of mice that died,[33],0
same,feces appearance,[34],M
same,number of mice that died,[34],0
same,feces appearance,[35],M
same,number of mice that died,[35],0
same,feces appearance,[36],D
same,number of mice that died,[36],0
same,feces appearance,[37],D
same,number of mice that died,[37],0
same,feces appearance,[38],D
same,number of mice that died,[38],0
same,feces appearance,[39],D
same,number of mice that died,[39],0
same,feces appearance,[40],D
same,number of mice that died,[40],0
same,feces appearance,[41],D
same,number of mice that died,[41],0
same,feces appearance,[42],D
same,number of mice that died,[42],0
same,feces appearance,[43],D
same,number of mice that died,[43],0
same,feces appearance,[44],D
same,number of mice that died,[44],0
same,feces appearance,[45],D
same,number of mice that died,[45],0
same,feces appearance,[46],M
same,number of mice that died,[46],0
same,feces appearance,[47],M
same,number of mice that died,[47],0
same,feces appearance,[48],M
same,number of mice that died,[48],0
same,feces appearance,[49],M
same,number of mice that died,[49],0
